Measured values: patent US8188059B2, “Compounds and methods for modulating expression of GCGR” (Isis Pharmaceuticals, Inc., priority 2006, dated 2012)
Strand notation (5' to 3'): a small letter for the sugar, then the base; units joined by * are phosphorothioate-linked, units joined directly phosphodiester-linked; [ ] holds rarer units or linkages, { } end groups; capitals alone tell only the bases. [PALM-N] = nucleoside bearing a 2'-(butylacetamido)-palmitamide (C16 palmitic acid) substituent (N: the base); e = 2'-O-(2-methoxyethyl) (MOE); l = locked nucleic acid (LNA); k = constrained ethyl (cEt); [5mC] = 5-methylcytosine; d = 2'-deoxy (DNA)

Assays:
ApoB mRNA [1] = test: ApoB mRNA in liver of Balb/c mice, single i.p. dose 8, 4, 2 or 1 μmol/kg, with ED50 (Example 28, Table 92); format: in vivo, mouse; details: Balb/c mice, relative to saline
Procedure: (§1) The short antisense compounds tested were ISIS 387462 and ISIS 398296. Each dose group consisted of four animals. A 5-10-5 MOE gapmer was used for a control treatment. Mice were sacrificed approximately 48 hours following the final dose. Liver tissue was collected for RNA isolation, and blood was collected for serum chemistry analyses. ApoB mRNA levels were measured by real-time PCR as described herein. ApoB mRNA levels were normalized to RNA levels as determined by RIBOGREEN, and are presented in Table 92 as percent inhibition relative to ApoB mRNA levels in saline-treated control animals.
At the 8 umol/kg dose, ApoB inhibition by the short antisense compounds was greater than observed with a 5-10-5 MOE gapmer at an equivalent dose. […] Triglycerides were reduced at the highest dose.

ApoB mRNA [2] = test: ApoB mRNA in liver of Balb/c mice, BNA short antisense compounds, i.p. twice per week for three weeks (Example 26, Table 89); format: in vivo, mouse; details: relative to saline
Procedure: as §1, with “compounds shown in Table 88 were” for “compounds”, “for their effects in vivo. […]” for “were ISIS 387462 and ISIS 398296. Each dose group consisted of four animals.”, “89” for “92”

[3] = Plasma glucose in ZDF rats, once a week for twelve weeks (Example 16, Table 71); format: in vivo, rat; details: compared to PBS and control treated animals
Procedure: (§2) ISIS 388625, 388626 and control oligo ISIS 388628 were analyzed for their effect on ZDF rat plasma glucose levels and HbA1c. The leptin receptor deficient Zucker diabetic fatty (ZDF) rat is a useful model for the investigation of type 2 diabetes. Diabetes develops spontaneously in these male rats at ages 8-10 weeks, and is associated with hyperphagia, polyuria, polydipsia, and impaired weight gain, symptoms which parallel the clinical symptoms of diabetes (Phillips M S, et al., 1996, Nat Genet. 13, 18-19). Six week old ZDF rats were injected intraperitoneally with short antisense compound at a dose of 400 nM/kg once a week for twelve weeks. Data are illustrated in Tables 71 and 72.

mouse SGLT2 mRNA [4] = test: Mouse SGLT2 mRNA levels in kidney, additional 1-10-1 and 2-8-2 MOE gapmers, Balb/c mice (Example 15, Table 68); format: in vivo
dog SGLT2 mRNA = test: Dog SGLT2 mRNA levels in kidney, beagle dogs, subcutaneous (Example 17, Table 73); format: in vivo; details: for % change in SGLT2 expression relative to saline: subcutaneous twice weekly, day 46
Procedure: ISIS 388625 is a 2-8-2 MOE Gapmer with sequence […] (SEQ ID NO: 246) (e.g. see Table 71). The effect of ISIS 388625 on dog SGLT2 mRNA levels. Data are taken from two dosing groups in which a total of nine male beagle dogs were dosed with either one or ten mg/kg/week of ISIS or saline given by subcutaneous injection twice weekly. On day 46 of the study all dogs were sacrificed and evaluated for SGLT2 levels in kidney. Target levels were determined by quantitative RT, real-time PCR as described by other examples herein. PCR results were normalized to an internal ISIS control.

mouse SGLT2 mRNA [5] = test: Mouse SGLT2 mRNA levels in kidney, MOE versus Methyleneoxy BNA gapmers, Balb/c mice (Example 15, Table 69); format: in vivo
Procedure: The effect of ISIS 379692 1-10-1 MOE gapmer and ISIS 388625 2-8-2 MOE gapmer are compared with the effect of ISIS 392170 1-10-1 Methyleneoxy BNA Gapmer and ISIS 392173 2-8-2 Methyleneoxy BNA Gapmer (see Table 69) on mouse SGLT2 mRNA levels in vivo. Data are taken from three experiments in which male 6-week old Balb/c mice were dosed twice per week for three weeks with 5, 25 and 125 nmol/kg of either the ISIS 379692 1-10-1 MOE gapmer or the ISIS 388625 2-8-2 MOE gapmer given by intraperitoneal injection. Mice were sacrificed 48 hours following last administration and evaluated for SGLT2 mRNA levels in kidney. Target levels were determined by RT, real-time PCR as described by other examples herein. PCR results were normalized to an internal ISIS control. The data are expressed as percent change (“+” indicates an increase, “−” indicates a decrease) relative to saline treated animals and are illustrated in Table 69.

[6] = Standard glucose tolerance test and urinary glucose excretion in dog (Example 17); format: in vivo
Text: Even greater reduction can be achieved at slightly higher doses. […] Peak plasma glucose levels were decreased by over 50% on average and the subsequent drop in glucose was lessened compared to saline controls in a standard glucose tolerance test.

rat SGLT2 mRNA = test: Rat SGLT2 mRNA levels in kidney, ISIS 379692 and ISIS 388625, Sprague-Dawley rats (Example 15, Table 70); format: in vivo; details: i.p. twice per week for three weeks
Procedure: The effect of ISIS 379692 1-10-1 MOE gapmer and ISIS 388625 MOE 2-8-2 gapmer (see Table 70) on rat SGLT2 mRNA levels in vivo. […] Rats were sacrificed 48 hours following last administration and evaluated for SGLT2 levels in kidney. Target levels were determined by RT, real-time PCR as described by other examples herein. PCR results were normalized to an internal ISIS control.

[7] = HbA1c status in ZDF rats (Example 16, Table 72); format: in vivo, rat; details: compared to PBS and control treated animals
Procedure: as §2

PTP1B mRNA [8] = test: Dose response for human PTP1B in HuVEC cells, Primer Probe Set 198 (Example 25, Table 86); format: cell-based
Procedure: (§3) Human vascular endothelial (HuVEC) cells were plated at a density of 5000 cells per well and treated as described herein with nM concentrations of short antisense compound as indicated in Table 86. After the treatment period, RNA was isolated from the cells and PTP1B mRNA levels were measured by quantitative real-time PCR, as described herein. PTP1B mRNA levels were adjusted according to total RNA content as measured by RIBOGREEN®. Two different human PTP1B primer probe sets were used to measure mRNA levels. Results with Primer Probe Set (PPS) 198 are shown in Table 86, and results with Primer Probe Set (PPS) 3000 are shown in Table 87. Results are presented as percent inhibition of PTP1B mRNA expression relative to untreated control cells.

PTP1B mRNA [9] = test: Antisense inhibition of human PTP1B in HepG2 cells at 25 nM (Example 24, Table 85); format: cell-based
Procedure: Short antisense compounds targeted to a PTP1B nucleic acid were tested for their effects on PTP1B mRNA in vitro. Cultured HepG2 cells at a density of 10000 cells per well in a 96-well plate were treated with 25 nM of antisense oligonucleotide. After the treatment period, RNA was isolated from the cells and PTP1B mRNA levels were measured by quantitative real-time PCR, as described herein. PTP1B mRNA levels were adjusted according to total RNA content as measured by RIBOGREEN®. Results are presented as percent inhibition (% Ihib) of PTP1B, relative to untreated control cells.

PTP1B mRNA [10] = test: Antisense inhibition of human PTP1B in HuVEC cells at 3 nM (Example 23, Table 84); format: cell-based
Procedure: Short antisense compounds targeted to a PTP1B nucleic acid were tested for their effects on PTP1B mRNA in vitro. Cultured HuVEC cells at a density of 5000 cells per well in a 96-well plate were treated as described herein with 3 nM of short antisense compound. After the treatment period, RNA was isolated from the cells and PTP1B mRNA levels were measured by quantitative real-time PCR, as described herein. PTP1B mRNA levels were adjusted according to total RNA content as measured by RIBOGREEN®. Results are presented as percent inhibition of PTP1B (% Inhib), relative to untreated control cells.

PTP1B mRNA [11] = test: Dose response for human PTP1B in HuVEC cells, Primer Probe Set 3000 (Example 25, Table 87); format: cell-based
Procedure: as §3

ApoB mRNA [12] = test: ApoB mRNA in liver of Balb/c mice, palmitic acid conjugates, single i.p. dose, with ED50 (Example 30, Table 95); format: in vivo, mouse; details: single i.p. injection
Procedure: as §1, with “0.4,” for “The short antisense compounds tested were ISIS 387462”, “0.16 umol/kg.” for “ISIS 398296.”, “95” for “92”
(§4) At the 2.5 umol/kg dose, ApoB inhibition by the short antisense compounds was greater than observed with a 5-10-5 MOE gapmer at an equivalent dose. […] Triglycerides were reduced at the 2.5 and […] doses of ISIS 387462 and ISIS 391872.

[13] = Triglycerides, total cholesterol, HDL-C, LDL-C and adverse effects (Example 30); format: in vivo, mouse
Procedure: as §1, with “0.4,” for “The short antisense compounds tested were ISIS 387462”, “0.16 umol/kg.” for “ISIS 398296.”, “95” for “92”
as §4

[14] = 0.1 umol/kg i.p. twice per week for three weeks

## 398296 (antisense kG*kG*dT*dA*dC*dA*dT*dG*dG*dA*dA*dG*kT*kC) [compound 398296]
ApoB mRNA [1]; single i.p. dose 1 umol/kg
  % Inhib (ApoB mRNA in liver): 19%
ApoB mRNA [1]; single i.p. dose 2 umol/kg
  % Inhib (ApoB mRNA in liver): 54%
ApoB mRNA [1]; single i.p. dose 4 umol/kg
  % Inhib (ApoB mRNA in liver): 81%
ApoB mRNA [1]; single i.p. dose 8 umol/kg
  % Inhib (ApoB mRNA in liver): 97%
ApoB mRNA [2]; [14]
  % Inhib (ApoB mRNA in liver): 17%
ApoB mRNA [2]; 0.32 umol/kg i.p. twice per week for three weeks
  % Inhib (ApoB mRNA in liver): 35%
ApoB mRNA [2]; 1 umol/kg i.p. twice per week for three weeks
  % Inhib (ApoB mRNA in liver): 80%
ApoB mRNA [2]; 3.2 umol/kg i.p. twice per week for three weeks
  % Inhib (ApoB mRNA in liver): 98%

## ISIS 388625: SGLT2; TGTTCCAGCCCA 2-8-2 MOE Gapmer (antisense eT*eG*dT*dT*d[5mC]*d[5mC]*dA*dG*d[5mC]*d[5mC]*e[5mC]*eA)
[3]
  Plasma glucose levels: significantly reduced
Mouse SGLT2 mRNA [4]; 0.02 umol/kg i.p. twice per week for three weeks
  % change in SGLT2 expression relative to saline: −65%
Mouse SGLT2 mRNA [4]; [14]
  % change in SGLT2 expression relative to saline: −88%
Mouse SGLT2 mRNA [4]; 0.5 umol/kg i.p. twice per week for three weeks
  % change in SGLT2 expression relative to saline: −90%
Dog SGLT2 mRNA; 1 mg/kg/wk dose
  reduction of SGLT2 mRNA / inhibition of the expression of SGLT2: greater than 80%
Dog SGLT2 mRNA; 1 mg/kg/wk
  % change in SGLT2 expression relative to saline: −85%
Dog SGLT2 mRNA; 10 mg/kg/wk
  % change in SGLT2 expression relative to saline: −95%
Mouse SGLT2 mRNA [5]; 5 nmol/kg i.p. twice per week for three weeks
  SGLT2 mRNA, percent change relative to saline treated animals: −18 percent change
Mouse SGLT2 mRNA [5]; 25 nmol/kg i.p. twice per week for three weeks
  SGLT2 mRNA, percent change relative to saline treated animals: −47 percent change
Mouse SGLT2 mRNA [5]; 125 nmol/kg i.p. twice per week for three weeks
  SGLT2 mRNA, percent change relative to saline treated animals: −70 percent change
[6]
  Urinary glucose excretion: increased
  glucose tolerance: improved glucose tolerance
[6]; standard glucose tolerance test, compared to saline controls
  Peak plasma glucose levels decreased, on average: over 50%
Rat SGLT2 mRNA; dose 3.125 umol/kg (head)
  % change in SGLT2 expression relative to saline: +25%
Rat SGLT2 mRNA; dose 12.5 umol/kg (head)
  % change in SGLT2 expression relative to saline: −15%
Rat SGLT2 mRNA; dose 50 umol/kg (head)
  % change in SGLT2 expression relative to saline: −65%
Rat SGLT2 mRNA; dose 200 umol/kg (head)
  % change in SGLT2 expression relative to saline: −80%
[7]
  HbA1C: significantly reduced

## 399301 (antisense eG*eT*dG*dT*dG*d[5mC]*dA*d[5mC]*dA*d[5mC]*dA*dG*e[5mC]*eT) [compound 399301]
PTP1B mRNA [8]; PPS 198, 1.11 nM
  % Inhibition of PTP1B mRNA: 8%
PTP1B mRNA [8]; PPS 198, 3.33 nM
  % Inhibition of PTP1B mRNA: 63%
PTP1B mRNA [8]; PPS 198, 10.0 nM
  % Inhibition of PTP1B mRNA: 91%
PTP1B mRNA [8]; PPS 198, 30.0 nM
  % Inhibition of PTP1B mRNA: 97%
PTP1B mRNA [9]
  % Inhib (PTP1B mRNA): 43%
PTP1B mRNA [10]
  % Inhib (PTP1B mRNA): 55%
PTP1B mRNA [11]; PPS 3000, 1.11 nM
  % Inhibition of PTP1B mRNA: 16%
PTP1B mRNA [11]; PPS 3000, 3.33 nM
  % Inhibition of PTP1B mRNA: 65%
PTP1B mRNA [11]; PPS 3000, 10.0 nM
  % Inhibition of PTP1B mRNA: 93%
PTP1B mRNA [11]; PPS 3000, 30.0 nM
  % Inhibition of PTP1B mRNA: 99%

## ISIS 391872: ApoB; GGTACATGGAAGTC 1-1-10-2 2′-(butylacetomido)-palmitamide Methyleneoxy BNA/Methyleneoxy BNA Unmodified cytosines in gap (antisense [PALM-G]*lG*dT*dA*dC*dA*dT*dG*dG*dA*dA*dG*lT*l[5mC])
ApoB mRNA [12]
  estimated ED50: 1.9 mg/kg
[13]; Example 30
  LDL-C: fell below the limit of detection
[13]; at the 2.5 and 1.0 mg/kg doses (so in the source)
  Triglycerides: reduced
[13]; dose-dependent manner
  total cholesterol, HDL-C and LDL-C: markedly reduced
